# Test system: MDA-MB-468 spheroids with HUVEC/MSC, viability
# Assay: Anticancer human tumor MDA-MB-468 cell line growth inhibition [PI3K];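 also: spheroids exposed to agents for seven days before readout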;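 as to viability, T/C: 100% = DMSO vehicle control viability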
# Conditions: for IC50: curve of first compound; for viability, T/C: stronger effect = lower value
# Summary of the method: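 Complex 3D spheroids (cancer cells + endothelial HUVEC + mesenchymal stem cells); drug pairs of targeted agent x inavolisib/alpelisib/duvelisib/copanlisib; half-log series from ~Cmax, max 10 microM if Cmax unknown; endpoint viability.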
# [1] = second compound 0.00316 µM, first compound 0.0316 µM
# [2] = second compound 0.00316 µM, first compound 0.1 µM
# [3] = second compound 0.00316 µM, first compound 0.316 µM
# [4] = second compound 0.00316 µM, first compound 1 µM
# [5] = second compound 0.00316 µM, first compound 3.16 µM
# [6] = second compound 0.00316 µM, first compound 10 µM
# [7] = second compound 0.01 µM, first compound 0.0316 µM
# [8] = second compound 0.01 µM, first compound 0.1 µM
# [9] = second compound 0.01 µM, first compound 0.316 µM
# [10] = second compound 0.01 µM, first compound 1 µM
# [11] = second compound 0.01 µM, first compound 3.16 µM
# [12] = second compound 0.01 µM, first compound 10 µM
# [13] = second compound 0.0316 µM, first compound 0.0316 µM
# [14] = second compound 0.0316 µM, first compound 0.1 µM
# [15] = second compound 0.0316 µM, first compound 0.316 µM
# [16] = second compound 0.0316 µM, first compound 1 µM
# [17] = second compound 0.0316 µM, first compound 3.16 µM
# [18] = second compound 0.0316 µM, first compound 10 µM
# [19] = second compound 0.1 µM, first compound 0.0316 µM
# [20] = second compound 0.1 µM, first compound 0.1 µM
# [21] = second compound 0.1 µM, first compound 0.316 µM
# [22] = second compound 0.1 µM, first compound 1 µM
# [23] = second compound 0.1 µM, first compound 3.16 µM
# [24] = second compound 0.1 µM, first compound 10 µM
# [25] = second compound 0.316 µM, first compound 0.0316 µM
# [26] = second compound 0.316 µM, first compound 0.1 µM
# [27] = second compound 0.316 µM, first compound 0.316 µM
# [28] = second compound 0.316 µM, first compound 1 µM
# [29] = second compound 0.316 µM, first compound 3.16 µM
# [30] = second compound 0.316 µM, first compound 10 µM
# [31] = second compound 1 µM, first compound 0.0316 µM
# [32] = second compound 1 µM, first compound 0.1 µM
# [33] = second compound 1 µM, first compound 0.316 µM
# [34] = second compound 1 µM, first compound 1 µM
# [35] = second compound 1 µM, first compound 3.16 µM
# [36] = second compound 1 µM, first compound 10 µM
structure (smiles),measurement,setting,value
CC1(C)CCC(CN2CCN(c3ccc(C(=O)NS(=O)(=O)c4ccc(NCC5CCOCC5)c([N+](=O)[O-])c4)c(Oc4cnc5[nH]ccc5c4)c3)CC2)=C(c2ccc(Cl)cc2)C1 + COc1c(OCCCN2CCOCC2)ccc2c3n(c(=NC(=O)c4cnc(N)nc4)nc12)CCN3,IC50,second compound 0.00316 µM,> 10000 nM
same,IC50,second compound 0.01 µM,> 10000 nM
same,IC50,second compound 0.0316 µM,> 10000 nM
same,IC50,second compound 0.1 µM,> 10000 nM
same,IC50,second compound 0.316 µM,< 31.6 nM
same,IC50,second compound 1 µM,< 31.6 nM
same,"viability, T/C",[1],80.4%
same,"viability, T/C",[2],87%
same,"viability, T/C",[3],82.9%
same,"viability, T/C",[4],99.9%
same,"viability, T/C",[5],80.3%
same,"viability, T/C",[6],78.3%
same,"viability, T/C",[7],79.2%
same,"viability, T/C",[8],79.7%
same,"viability, T/C",[9],92%
same,"viability, T/C",[10],87.9%
same,"viability, T/C",[11],76.2%
same,"viability, T/C",[12],90.2%
same,"viability, T/C",[13],77.5%
same,"viability, T/C",[14],71.2%
same,"viability, T/C",[15],80%
same,"viability, T/C",[16],83.1%
same,"viability, T/C",[17],73%
same,"viability, T/C",[18],69.6%
same,"viability, T/C",[19],55.7%
same,"viability, T/C",[20],54.8%
same,"viability, T/C",[21],69.7%
same,"viability, T/C",[22],63.4%
same,"viability, T/C",[23],52.5%
same,"viability, T/C",[24],67.6%
same,"viability, T/C",[25],26.4%
same,"viability, T/C",[26],23.5%
same,"viability, T/C",[27],25.5%
same,"viability, T/C",[28],28.9%
same,"viability, T/C",[29],25.5%
same,"viability, T/C",[30],22.8%
same,"viability, T/C",[31],4.5%
same,"viability, T/C",[32],3.78%
same,"viability, T/C",[33],4.07%
same,"viability, T/C",[34],3.93%
same,"viability, T/C",[35],4.32%
same,"viability, T/C",[36],4.03%
C[C@@H](NC(=O)c1ncnc(N)c1Cl)c1ncc(C(=O)Nc2cc(C(F)(F)F)c(Cl)cn2)s1 + COc1c(OCCCN2CCOCC2)ccc2c3n(c(=NC(=O)c4cnc(N)nc4)nc12)CCN3,IC50,second compound 0.00316 µM,> 10000 nM
same,IC50,second compound 0.01 µM,> 10000 nM
same,IC50,second compound 0.0316 µM,> 10000 nM
same,IC50,second compound 0.1 µM,> 10000 nM
same,IC50,second compound 0.316 µM,< 31.6 nM
same,IC50,second compound 1 µM,< 31.6 nM
same,"viability, T/C",[1],83.1%
same,"viability, T/C",[2],91.9%
same,"viability, T/C",[3],93.5%
same,"viability, T/C",[4],96.2%
same,"viability, T/C",[5],86.4%
same,"viability, T/C",[6],76.4%
same,"viability, T/C",[7],87%
same,"viability, T/C",[8],101%
same,"viability, T/C",[9],87.4%
same,"viability, T/C",[10],101%
same,"viability, T/C",[11],99.7%
same,"viability, T/C",[12],71.4%
same,"viability, T/C",[13],79.7%
same,"viability, T/C",[14],79.2%
same,"viability, T/C",[15],91.6%
same,"viability, T/C",[16],75.9%
same,"viability, T/C",[17],74.5%
same,"viability, T/C",[18],61.6%
same,"viability, T/C",[19],51.1%
same,"viability, T/C",[20],52.5%
same,"viability, T/C",[21],57.5%
same,"viability, T/C",[22],66.6%
same,"viability, T/C",[23],59.9%
same,"viability, T/C",[24],56.6%
same,"viability, T/C",[25],28.3%
same,"viability, T/C",[26],27.8%
same,"viability, T/C",[27],30%
same,"viability, T/C",[28],37.3%
same,"viability, T/C",[29],36.3%
same,"viability, T/C",[30],31.9%
same,"viability, T/C",[31],5.16%
same,"viability, T/C",[32],4.86%
same,"viability, T/C",[33],5.09%
same,"viability, T/C",[34],7.06%
same,"viability, T/C",[35],7.47%
same,"viability, T/C",[36],5.33%
Cn1ncnc1[C@H]1c2n[nH]c(=O)c3cc(F)cc(c23)N[C@@H]1c1ccc(F)cc1 + COc1c(OCCCN2CCOCC2)ccc2c3n(c(=NC(=O)c4cnc(N)nc4)nc12)CCN3,IC50,second compound 0.00316 µM,> 100 nM
same,IC50,second compound 0.01 µM,> 100 nM
same,IC50,second compound 0.0316 µM,83.4 nM
same,IC50,second compound 0.1 µM,23.1 nM
same,IC50,second compound 0.316 µM,< 0.316 nM
same,IC50,second compound 1 µM,< 0.316 nM
same,"viability, T/C","second compound 0.00316 µM, first compound 0.000316 µM",103%
same,"viability, T/C","second compound 0.00316 µM, first compound 0.001 µM",89%
same,"viability, T/C","second compound 0.00316 µM, first compound 0.00316 µM",83.8%
same,"viability, T/C","second compound 0.00316 µM, first compound 0.01 µM",79.1%
same,"viability, T/C",[1],69.4%
same,"viability, T/C",[2],57.9%
same,"viability, T/C","second compound 0.01 µM, first compound 0.000316 µM",79.7%
same,"viability, T/C","second compound 0.01 µM, first compound 0.001 µM",89.8%
same,"viability, T/C","second compound 0.01 µM, first compound 0.00316 µM",92%
same,"viability, T/C","second compound 0.01 µM, first compound 0.01 µM",74.7%
same,"viability, T/C",[7],70.5%
same,"viability, T/C",[8],50.1%
same,"viability, T/C","second compound 0.0316 µM, first compound 0.000316 µM",75.9%
same,"viability, T/C","second compound 0.0316 µM, first compound 0.001 µM",84.6%
same,"viability, T/C","second compound 0.0316 µM, first compound 0.00316 µM",70.2%
same,"viability, T/C","second compound 0.0316 µM, first compound 0.01 µM",67.1%
same,"viability, T/C",[13],57.6%
same,"viability, T/C",[14],48.4%
same,"viability, T/C","second compound 0.1 µM, first compound 0.000316 µM",60.8%
same,"viability, T/C","second compound 0.1 µM, first compound 0.001 µM",65.1%
same,"viability, T/C","second compound 0.1 µM, first compound 0.00316 µM",63.4%
same,"viability, T/C","second compound 0.1 µM, first compound 0.01 µM",55.3%
same,"viability, T/C",[19],48%
same,"viability, T/C",[20],34.7%
same,"viability, T/C","second compound 0.316 µM, first compound 0.000316 µM",29.5%
same,"viability, T/C","second compound 0.316 µM, first compound 0.001 µM",27.4%
same,"viability, T/C","second compound 0.316 µM, first compound 0.00316 µM",26.4%
same,"viability, T/C","second compound 0.316 µM, first compound 0.01 µM",26.9%
same,"viability, T/C",[25],26.7%
same,"viability, T/C",[26],17.5%
same,"viability, T/C","second compound 1 µM, first compound 0.000316 µM",3.21%
same,"viability, T/C","second compound 1 µM, first compound 0.001 µM",2.83%
same,"viability, T/C","second compound 1 µM, first compound 0.00316 µM",2.99%
same,"viability, T/C","second compound 1 µM, first compound 0.01 µM",4.15%
same,"viability, T/C",[31],3.68%
same,"viability, T/C",[32],2.25%
